Target: T1, retinoic acid receptor-related orphan receptor γ (RORγ) (Homo sapiens, UniProt P51449)
T1 sequence (P51449 265-507 limits assumed): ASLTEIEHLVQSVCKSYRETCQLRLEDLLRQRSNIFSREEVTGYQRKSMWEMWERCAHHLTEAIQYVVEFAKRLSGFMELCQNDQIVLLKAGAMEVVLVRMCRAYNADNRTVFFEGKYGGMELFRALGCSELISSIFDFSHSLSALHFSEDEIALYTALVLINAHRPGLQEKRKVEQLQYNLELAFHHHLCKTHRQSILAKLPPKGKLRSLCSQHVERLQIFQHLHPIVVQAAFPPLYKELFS
Assay type: binding

## C[C@H]1O[C@@H](O[C@H]2[C@@H](O)C[C@H](O[C@H]3[C@@H](O)C[C@H](O[C@H]4CC[C@@]5(C)[C@H](CC[C@@H]6[C@@H]5C[C@@H](O)[C@]5(C)[C@@H](C7=CC(=O)OC7)CC[C@]65O)C4)O[C@@H]3C)O[C@@H]2C)C[C@H](O)[C@@H]1O [digoxin]
  differential HDX mass spectrometry: HDX) mass spectrometry analysis of the RORγ LBD in the presence and absence of digoxin, T1317, or SR2211

— publication PMC3331898 (2012)
